Laboratory results as given in ChEMBL document CHEMBL1152491, “Synthesis and evaluation of antibacterial activities of andrographolide analogues” (2009).
Active and inactive are the calls of the source. The rule behind the calls is not given here.

Key:
[1] = system: Candida albicans; test: Antifungal activity against Candida albicans at 0.05 mg/disk after 25 hrs; type: functional, organism-based
[2] = system: Staphylococcus aureus; test: Antibacterial activity against methicillin-resistant Staphylococcus aureus 5677 at 0.05 mg/disk after 25 hrs; type: functional
[3] = system: Pseudomonas aeruginosa; test: Inhibition of Pseudomonas aeruginosa PAO1 quorum sensing assessed as inhibition of pycocyanin production at 0.1 mM after 18 hrs; type: functional, organism-based
[4] = system: Pseudomonas aeruginosa; test: Antibacterial activity against Pseudomonas aeruginosa at 0.05 mg/disk after 25 hrs; type: functional
[5] = system: Pseudomonas aeruginosa PAO1; test: Inhibition of Pseudomonas aeruginosa PAO1 quorum sensing assessed as suppression of protease production at 1 mM after 18 hrs by azocasein-based colorimetric method
[6] = system: Bacillus subtilis; test: Antibacterial activity against Bacillus subtilis at 0.05 mg/disk after 25 hrs; type: functional
[7] = system: Staphylococcus aureus; test: Antibacterial activity against methicillin-resistant Staphylococcus aureus 5676 at 0.05 mg/disk after 25 hrs; type: functional
[8] = system: Pseudomonas aeruginosa PAO1; test: Inhibition of Pseudomonas aeruginosa PAO1 quorum sensing assessed as suppression of protease production at 0.1 mM after 18 hrs by azocasein-based colorimetric method
[9] = system: Escherichia coli; test: Antibacterial activity against Escherichia coli at 0.05 mg/disk after 25 hrs; type: functional
[10] = system: Pseudomonas aeruginosa PAO1; test: Inhibition of Pseudomonas aeruginosa PAO1 quorum sensing assessed as inhibition of pycocyanin production at 1 mM after 18 hrs
[11] = system: Staphylococcus aureus; test: Antibacterial activity against Staphylococcus aureus at 0.05 mg/disk after 25 hrs; type: functional
[12] = system: Pseudomonas aeruginosa; test: Growth inhibition of Pseudomonas aeruginosa PAO1 assessed as survival rate at 538 ug/mL after 20 hrs; type: functional; details: PAO1, 20 h
[13] = system: Pseudomonas aeruginosa; test: Growth inhibition of Pseudomonas aeruginosa PAO1 at 1 mM after 25 hrs; type: functional, organism-based
[14] = system: Pseudomonas aeruginosa; test: Growth inhibition of Pseudomonas aeruginosa PAO1 assessed as population density at 1 mM after 15 hrs by atomic force microscopy; type: functional, organism-based
[15] = system: Pseudomonas aeruginosa; test: Inhibition of Pseudomonas aeruginosa PAO1 biofilm formation cultivated on respiratory tack suction tube at 1 mM after 3 days by scanning electron microscopy; type: functional, organism-based
[16] = system: Pseudomonas aeruginosa; test: Inhibition of Pseudomonas aeruginosa PAO1 biofilm formation cultivated on respiratory tack suction tube at 1 mM after 7 days by scanning electron microscopy; type: functional, organism-based
[17] = system: Pseudomonas aeruginosa; test: Growth inhibition of Pseudomonas aeruginosa PAO1 assessed as survival rate at 0.017 ug/mL after 20 hrs; type: functional; details: PAO1, 20 h
[18] = system: Pseudomonas aeruginosa; test: Growth inhibition of Pseudomonas aeruginosa PAO1 assessed as survival rate at 3.75 ug/mL after 20 hrs; type: functional; details: PAO1, 20 h
[19] = system: Pseudomonas aeruginosa PAO1; test: Inhibition of Pseudomonas aeruginosa PAO1 quorum sensing assessed as inhibition of pycocyanin production at 10 mM after 18 hrs
[20] = system: Pseudomonas aeruginosa PAO1; test: Inhibition of Pseudomonas aeruginosa PAO1 quorum sensing assessed as suppression of protease production at 10 mM after 18 hrs by azocasein-based colorimetric method
[21] = system: Pseudomonas aeruginosa; test: Growth inhibition of Pseudomonas aeruginosa PAO1 at 10 mM after 25 hrs; type: functional, organism-based

Structure (SMILES)	Activity [1]	diameter of the inhibition zone (DIZ) [2] [mm]	Activity [3]	diameter of the inhibition zone (DIZ) [4] [mm]	Activity [5]	diameter of the inhibition zone (DIZ) [6] [mm]	diameter of the inhibition zone (DIZ) [7] [mm]	Activity [8]	diameter of the inhibition zone (DIZ) [9] [mm]	Activity [10]	diameter of the inhibition zone (DIZ) [11] [mm]	Activity [13]	Activity [14]	Activity [15]	Activity [16]	other results
C=C1CC[C@@H]2[C@](C)(CO)[C@H](O)CC[C@@]2(C)[C@@H]1C/C=C1/C(=O)OC[C@H]1OC(=O)CNC(=O)OC(C)(C)C	inactive	7.6	Active	<4	Active	<4	8.4	Active	<4	Active	10.2	–	–	–	–	–
C=C1CC[C@@H]2[C@](C)(CO)[C@H](O)CC[C@@]2(C)[C@@H]1C/C=C1/C(=O)OC[C@H]1OC(=O)CCCCC1CCSS1 (stereo not given in full)	inactive	4.1	Active	<4	Active	<4	6.9	Active	<4	Active	4.9	Active	Active	Active	Active	survival at 538 µg/mL [12]: 84%
C=C1CC[C@@H]2[C@](C)(CO)[C@H](O)CC[C@@]2(C)[C@@H]1C/C=C1/C(=O)OC[C@H]1OC(=O)CN.Cl	inactive	5.2	Active	<4	Active	<4	8.7	Active	<4	Active	9.3	Active	Active	inactive	inactive	–
O=C(O)c1cn(C2CC2)c2cc(N3CCNCC3)c(F)cc2c1=O [CIPROFLOXACIN]	–	–	–	–	–	–	–	–	–	–	–	–	–	–	–	survival at 0.017 µg/mL [17]: 85%
CC[C@H]1OC(=O)[C@H](C)[C@@H](O[C@H]2C[C@@](C)(OC)[C@@H](O)[C@H](C)O2)[C@H](C)[C@@H](O[C@@H]2O[C@H](C)C[C@H](N(C)C)[C@H]2O)[C@](C)(O)C[C@@H](C)C(=O)[C@H](C)[C@@H](O)[C@]1(C)O [ERYTHROMYCIN]	–	–	–	–	–	–	–	–	–	–	–	–	–	–	–	survival at 3.75 µg/mL [18]: 93.5%
C=C1CC[C@@H]2[C@](C)(CO)[C@H](O)CC[C@@]2(C)[C@@H]1C/C=C1/C(=O)OC[C@H]1OC(=O)/C=C/c1ccc([N+](=O)[O-])cc1	inactive	6.4	Active	<4	Active	<4	8.1	Active	<4	Active	8.3	–	–	–	–	–
C=C1CC[C@@H]2[C@](C)(CO)[C@H](O)CC[C@@]2(C)[C@@H]1C/C=C1/C(=O)OC[C@H]1O [ANDROGRAPHOLIDE]	–	–	–	<4	Active	<4	–	Active	<4	–	<4	Active	inactive	inactive	inactive	–
C=C1CC[C@@H]2[C@](C)(CO)[C@H](O)CC[C@@]2(C)[C@@H]1CC(C1=CCOC1=O)S(=O)(=O)[O-].[Na+] (stereo not given in full)	inactive	–	inactive	<4	–	<4	–	Active	<4	–	<4	–	–	–	–	Activity [19]: Active; Activity [20]: Active; Activity [21]: inactive
